According to the NIST ThermoML archive (doi:10.1016/j.jct.2015.10.026):

Test: mn = molality of the nth substance listed, in mol/kg
Conditions: 100 kPa, Liquid; for viscosity: Capillary tube (Ostwald / Ubbelohde) method; for electrical conductivity: Direct current cell with electrodes; for mass density: Vibrating tube method

CCCCn1cc[n+](C)c1.NCCS(=O)(=O)[O-] [1-butyl-3-methylimidazolium taurate] + O
Conditions	electrical conductivity [S/m]	mass density [kg/m3]	viscosity [mPa·s]
293.15 K, m1 = 0.00165	0.0072	–	–
293.15 K, m1 = 0.00227	0.0097	–	–
293.15 K, m1 = 0.00341	0.0142	–	–
293.15 K, m1 = 0.00511	0.0205	998.36	–
293.15 K, m1 = 0.00752	0.0293	998.46	–
293.15 K, m1 = 0.00917	–	998.52	–
293.15 K, m1 = 0.01078	0.0403	998.59	1.034
293.15 K, m1 = 0.01261	0.0464	998.67	1.038
293.15 K, m1 = 0.01552	0.0552	998.81	1.043
293.15 K, m1 = 0.01938	0.0668	999	1.05
293.15 K, m1 = 0.02239	0.0757	999.16	–
293.15 K, m1 = 0.02555	–	999.33	1.06
293.15 K, m1 = 0.02746	–	999.43	–
293.15 K, m1 = 0.03626	–	–	1.074
293.15 K, m1 = 0.05001	–	–	1.093
293.15 K, m1 = 0.0693	–	–	1.117
293.15 K, m1 = 0.08462	–	–	1.133
298.15 K, m1 = 0.00165	0.0089	–	–
298.15 K, m1 = 0.00227	0.0121	–	–
298.15 K, m1 = 0.00341	0.0177	–	–
298.15 K, m1 = 0.00511	0.0257	997.16	–
298.15 K, m1 = 0.00752	0.0365	997.24	–
298.15 K, m1 = 0.00917	–	997.3	–
298.15 K, m1 = 0.01078	0.0498	997.36	0.925
298.15 K, m1 = 0.01261	0.0571	997.43	0.928
298.15 K, m1 = 0.01552	0.0684	997.56	0.934
298.15 K, m1 = 0.01938	0.0824	997.74	0.94
298.15 K, m1 = 0.02239	0.0922	997.89	–
298.15 K, m1 = 0.02555	–	998.06	0.95
298.15 K, m1 = 0.02746	–	998.16	–
298.15 K, m1 = 0.03626	–	–	0.965
298.15 K, m1 = 0.05001	–	–	0.981
298.15 K, m1 = 0.0693	–	–	1.004
298.15 K, m1 = 0.08462	–	–	1.018
303.15 K, m1 = 0.00165	0.0104	–	–
303.15 K, m1 = 0.00227	0.0141	–	–
303.15 K, m1 = 0.00341	0.0206	–	–
303.15 K, m1 = 0.00511	0.0299	995.73	–
303.15 K, m1 = 0.00752	0.0425	995.79	–
303.15 K, m1 = 0.00917	–	995.83	–
303.15 K, m1 = 0.01078	0.0587	995.88	0.835
303.15 K, m1 = 0.01261	0.0675	995.94	0.838
303.15 K, m1 = 0.01552	0.0805	996.06	0.844
303.15 K, m1 = 0.01938	0.0965	996.22	0.85
303.15 K, m1 = 0.02239	0.107	996.37	–
303.15 K, m1 = 0.02555	–	996.53	0.86
303.15 K, m1 = 0.02746	–	996.63	–
303.15 K, m1 = 0.03626	–	–	0.874
303.15 K, m1 = 0.05001	–	–	0.89
303.15 K, m1 = 0.0693	–	–	0.911
303.15 K, m1 = 0.08462	–	–	0.925
308.15 K, m1 = 0.00165	0.0119	–	–
308.15 K, m1 = 0.00227	0.0161	–	–
308.15 K, m1 = 0.00341	0.0237	–	–
308.15 K, m1 = 0.00511	0.0344	994.08	–
308.15 K, m1 = 0.00752	0.0488	994.12	–
308.15 K, m1 = 0.00917	–	994.15	–
308.15 K, m1 = 0.01078	0.067	994.19	0.76
308.15 K, m1 = 0.01261	0.0772	994.24	0.764
308.15 K, m1 = 0.01552	0.092	994.34	0.77
308.15 K, m1 = 0.01938	0.111	994.48	0.776
308.15 K, m1 = 0.02239	0.123	994.63	–
308.15 K, m1 = 0.02555	–	994.78	0.786
308.15 K, m1 = 0.02746	–	994.88	–
308.15 K, m1 = 0.03626	–	–	0.801
308.15 K, m1 = 0.05001	–	–	0.817
308.15 K, m1 = 0.0693	–	–	0.837
308.15 K, m1 = 0.08462	–	–	0.851
313.15 K, m1 = 0.00165	0.0135	–	–
313.15 K, m1 = 0.00227	0.0182	–	–
313.15 K, m1 = 0.00341	0.0265	–	–
313.15 K, m1 = 0.00511	0.0385	992.21	–
313.15 K, m1 = 0.00752	0.0544	992.23	–
313.15 K, m1 = 0.00917	–	992.26	–
313.15 K, m1 = 0.01078	0.0749	992.29	0.698
313.15 K, m1 = 0.01261	0.0858	992.34	0.702
313.15 K, m1 = 0.01552	0.102	992.42	0.708
313.15 K, m1 = 0.01938	0.121	992.55	0.715
313.15 K, m1 = 0.02239	0.134	992.67	–
313.15 K, m1 = 0.02555	–	992.8	0.725
313.15 K, m1 = 0.02746	–	992.88	–
313.15 K, m1 = 0.03626	–	–	0.74
313.15 K, m1 = 0.05001	–	–	0.757
313.15 K, m1 = 0.0693	–	–	0.779
313.15 K, m1 = 0.08462	–	–	0.793
